Data as given in patent publication US10682427B2, “Intra-operative imaging” (BRACCO IMAGING S.P.A., priority 2014, dated 2020).

How the values were obtained:
[1] = Ex vivo fluorescent signal in excised organs (IVIS Spectrum); set-up: species or system mice; settings: 48 hours after 1 nmol i.v.
Method: Three weeks after A431 tumor implantation five mice were administered with 1 nmol of DA364 for a total administration volume of 0.2 mL (inj. rate 1 mL/min). In vivo OI acquisitions have been carried out 5 min, 15 min, 30 min, 1 h, 2 h, 3 h, 4 h, 6 h, 24 h and 48 hours after intravenous administration of the fluorescent probe using the IVIS Spectrum optical imaging system (Perkin Elmer). During OI experiments animals were kept under 3-4% Sevofluorane gas anaesthesia (O2 97.0-96.0%). During anaesthesia animals body temperature has been stabilized at about 37° C. using a heated bed.
Following in vivo OI experiments, 48 hours after probes injection, animals were sacrificed. Tumors, liver, kidneys, heart and spleen were excised for ex vivo fluorescent signal measure on the whole excised tumor or organ.
The fluorescent signal (expressed as Radiant Efficiency (RE): p/s/(μW/cm^2), where p is the photon count), was then measured on the excised ex vivo samples using the IVIS Spectrum optical imaging system (Perkin Elmer).

[2] = system: rat orthotopic prostate tumor model Mat Ly-Lu; assay: Fluorescence guided-surgery in rat prostate tumor model, visual classification validated by histology; type: in vivo, Copenhagen rats
Method: This example is aimed at assessing the sensitivity of the NIR RGD cyclic probe DA364 in the recognition of tumor masses using rat orthotopic prostate tumor model Mat Ly-Lu (a tumor with reduced expression of αvβ3 integrins, as illustrated below).
Intraoperative imaging was performed on a Zeiss system, a modified surgical microscope including appropriate filters for illumination and selection of signals emitted from the probe. Rat tumoral MatLyLu prostate cells were inoculated in the right ventral lobe of the prostate. Three-four days after inoculation animals were intravenously injected with a dose ranging from 5 to 20 nmol/rat of NIR fluorescent probe and imaged 24 hours after. Tumors have been then resected through fluorescent signal guide. Tissues surrounding the fluorescent area including tissues from the left prostate lobe was excised for histological comparison. All the samples were analysed through routine histological processing (Hematoxylin and eosin stain) and additional immune-labelling.
The experiment was performed on 10 Copenhagen rats (males) 11 weeks old, purchased from Harlan Laboratories Srl, S.Pietro al Natisone (UD), Italy. Rat prostate adenocarcinoma was induced in Copenhagen rats by orthotopic injection of the MatLylu tumor cells under isofluorane anesthesia. About 1 hour before tumor implantation, an analgesic (Rymadil) was administered subcutaneously (5 mg/kg) to rats. Then the lower abdomen was shaved and disinfected (Betadinen. A 12 mm incision of the abdominal wall along the linea Alba was performed 3 to 4 cm above the urinary orifice. The prostate was exposed after having pushed away the adipose tissue on each side of the animal.
A cell suspension (30 μL) containing 0.5×10^6 tumor cells was injected with a 27G needle into the right ventral lobe of the prostate. The muscular and cutaneous plan was sewed up with sterile non-resorbable thread (3-0 black silk, Distrex S.p.a.). The wound was painted with disinfectant solution Betadine®. The analgesic was also administered at least once after surgery (about 24 h after). All procedures involving the animals have been conducted according to national and international laws and policies for the Care and Use of Laboratory Animals (EEC Council Directive 86/609CEE; L.D. 116/92 and EEC Council Directive 2010/63/EU; L.D. 26/2014. Authorization n.149/2006-A issued Oct. 27, 2006 by the Italian Ministry of Health).
The tumor removal was performed using a dedicated surgical microscope (Axio Zoom v16, Carl Zeiss Beteiligungs GmbH, Jena, Germany). The microscope was equipped with a PLANAPO Z 0.5×/0.125 FWD 114 MM objective. During surgery an area of about 2.5×2.5 cm^2 was visualized. The surgical field was white-light illuminated by a cold light source (CL 9000 LED CAN (D)) when the fluorescence signal was not required, and by filtered light during the tumor removal (Illuminator: HXP 200C (D), filter set: 32 Cy 5.5 shift free (E)).
The day before surgery, corresponding to 3-4 days after tumor implantation, animals were administered with a dose of DA364 test agent ranging from 5 to 20 nmol/rat. Twenty-four hours after probes injection, animals were anaesthetized with isofluorane gas 0.5% (O2 99.5%), secured on the surgical table in the supine position and prostate tumor will be exposed.
After the removal of the prostatic capsule, the prostatic tumor was exposed to filtered light and fluorescence images were acquired to outline the primary tumor mass and the margins of the pathology (see FIG. 3, Panels A and D). The removal of the tumor mass was then carried out iteratively, by using fluorescence to guide the excision until absence of the fluorescent signal in the area surrounding tumor region (see FIG. 3, Panels B,E and C,F). Most of the fluorescent signal was confined in implantation area, i.e. the prostate right ventral lobe. […]

[3] = target: αvβ1 integrin (Homo sapiens, UniProt P05556+P06756); assay: In vitro competitive binding assay with biotinylated vitronectin; settings: competitor biotinylated vitronectin 1 μg/mL, read-out: IC50 (vitronectine IC50)
Method: (§1) The affinity of DA364 for its specific targeted (the integrin αvβ3) and its crossreactivity for other integrins (e.g. αvβ1, αvβ5) was assessed by in vitro binding tests.
(§2) A 96-well microtiter plate (MediSorp, Nunc) was coated overnight at 4° C., with tested integrins (0.5 μg/mL, diluted in coating/washing buffer (20 mM Tris HCl pH 7.4; 150 mM NaCl; 1 mM MnCl2; 0.5 mM MgCl2; 2 mM CaCl2). After coating, the plate is rinsed with washing buffer and then incubated in blocking buffer (3% BSA in coating buffer) for 2 h at room temperature (RT) (24° C. in Thermomixer, under shaking). The plate was then rinsed in washing buffer and incubated at RT for 3 h with DA364 (concentration range from 5000 to 0.005 nM). DA364 solutions were prepared by serially diluting a stock solution of the NIR agent in 1% BSA in coating buffer in presence of biotinylated vitronectin (1 μg/mL, cod. HVN-U605, Molecular Innovations). The plate is then rinsed again and incubated with Streptavidin-HRP (cod.EG RPN 1051, GE Healthcare) (1:10000 in PBS) 1 h at RT, binding the biotinylated vitronectin. After additional washes in PBS, the plate was incubated with TMB solution (3,3′,5,5′-tetramethylbenzidine) (cod.T-0440, Sigma-Aldrich) for 5-10 min and the colorimetric reaction was then stopped by addition of 2 N sulfuric acid. The quantification of the IC50 for DA364 was performed by measuring the competitor (biotinylated vitronectin) by reading the absorbance at 450 nm. IC50 values were determined by least-square non-linear regression analysis.

[4] = target: αvβ3 integrin (Homo sapiens, UniProt P05106+P06756); assay: as above; settings: competitor biotinylated vitronectin 1 μg/mL, average value from a triplicate test, read-out: IC50 (vitronectine IC50)
Method: as §1, §2

[5] = target: αvβ5 integrin (Homo sapiens, UniProt P06756+P18084); assay: as above; settings: competitor biotinylated vitronectin 1 μg/mL, read-out: IC50 (vitronectine IC50)
Method: as §1, §2

[6] = 5 to 20 nmol/rat i.v., surgery 24 h after, versus histology

In the case of `CC[N+]1=C(/C=C/C=C/C=C2/N(CCCCCC(=O)NC[C@@H]3C[C@@H]4CC[C@H]5C(=O)N[C@@H](CCCNC(=N)N)C(=O)NCC(=O)N[C@@H](CC(=O)O)C(=O)N[C@H]3C(=O)N45)c3ccc4c(S(=O)(=O)O)cc(S(=O)(=O)O)cc4c3C2(C)C)C(C)(C)c2c1ccc1c(S(=O)(=O)[O-])cc(S(=O)(=O)O)cc21` [DA364], the “Fluorescence Signal (Radiant Efficiency)” value ([1]; excised heart ex vivo) is reported as 4.61E+07 p/s/(μW/cm^2), the “Fluorescence Signal (Radiant Efficiency)” value ([1]; excised kidney ex vivo) is reported as 3.55E+08 p/s/(μW/cm^2) and the “Fluorescence Signal (Radiant Efficiency)” value ([1]; excised liver ex vivo) is reported as 4.04E+08 p/s/(μW/cm^2). For the same molecule, the “Fluorescence Signal (Radiant Efficiency)” value ([1]; excised spleen ex vivo) was 5.79E+07 p/s/(μW/cm^2), the “sensitivity of visual classification of tumor tissues” value [2, 6] was 87% and the “specificity of visual classification of tumor tissues” value [2, 6] was 83%. For the same molecule, the “number of tissue samples, histology Negative” value ([2]; surgery class FLUORESCENT) was 3, the “number of tissue samples, histology Positive” value ([2]; surgery class FLUORESCENT) was 20 and the “number of tissue samples, histology Negative” value ([2]; surgery class NON FLUORESCENT) was 15. The “number of tissue samples, histology Positive” value ([2]; surgery class NON FLUORESCENT) was 3, the IC50 [3] was 28 nM and the IC50 [4] was 3.76 nM. It also gave an IC50 [5] of 281 nM.
